Test [1] relates to mouse peritoneal macrophages transduced with Ad-GFP. In words: Enhancement of GFP expression in peritoneal macrophages transduced with Ad-GFP, PRR agonists (Example 4). It counts as cell-based. To be noted: Ad-GFP 2 × 10^7 PFU/ml, 4 days. As to the method: Mouse peritoneal macrophages (BALB/c female mice, Stolbovaya breeding nursery) were washed with physiological saline solution, pelleted by centrifugation at 1200 rpm for 10 min, suspended in the complete cell culture medium (CCM, consisting of RPMI-1640 medium supplemented with 10% fetal calf serum, 2 mM L-glutamine, 50 μM of (3-mercaptoethanol, and 10 μg/ml of gentamycin) at a concentration of one million cells per 1 ml, and incubated over night in 90 mm Petri dishes at 37° C. and 5% CO2. On the next day, nonadherent cells were removed by washing with warm phosphate buffered saline (PBS, pH 7.4), and adherent cells were covered with Versene solution, kept at 4° C. for 60 min in a refrigerator, and then detached from the culture dish by washing with Versene solution using 5 ml pipette. […] Cell cultures were incubated for 4 days at 37° C. and 5% CO2.
Confocal microscopy images (FIG. 3A) show macrophages transduced with Ad-GFP and additionally activated by TLR4 agonist (10 μg/ml of APG, right image), as compared to control macrophages transduced with Ad-GFP without addition of APG (left image). […] The quantitative assay of GFP production was carried out using flow cytometry which determined both the absolute number of cells containing GFP and the GFP content in each cell by measuring fluorescence intensity of a single cell. The product of the number of fluorescent cells and the fluorescence intensity of each cell is proportional to the number of synthesized GFP molecules.
As is described earlier, peritoneal macrophages were transduced with Ad-GFP (2×10^7 PFU/ml) in the absence or presence of one of the above mentioned PRR agonists. Cell cultures were incubated at 37° C. and 5% CO2 for four days. After the end of incubation, cells were detached by washing with a cold Versene solution, and the percentage and absolute number of cells having green fluorescence and the intensity of cell fluorescence were determined using a FACSAria II flow cytometer. The absolute count of cells was normalized by calibration beads containing a known concentration of microspheres (CountBright Invitrogen), and discrimination between live and dead cells was carried out using a DNA-specific dye DAPI. Typical histograms of GFP fluorescence signal after the transduction of macrophages by Ad-GFP without additional activation of cells (FIG. 3D) or with additional activation of cells with CL097, the agonist of TLR7 and TLR8 (FIG. 3E), are shown.
The quantitative assessment of the enhancement of target GFP expression was performed by the formula:
K=MFI×N/MFIcontr×Ncontr, (1)
K is the enhancement (fold increase) of GFP expression;
MFI is the mean intensity of fluorescence of cells transduced with Ad-GFP with additional activation by an agonist;
MFIcontr is the mean intensity of fluorescence of cells transduced with Ad-GFP (control) without additional activation;
N is the number of fluorescent cells after the transduction with Ad-GFP with additional activation by an agonist; and
Ncontr is the number of fluorescent cells (control) after the transduction with Ad-GFP without additional activation.

Test [2] concerns mouse peritoneal macrophages. In words: Enhancement of transgenic SEAP expression in peritoneal macrophages (Example 6). The following applies: TNF-α 10 ng/ml or APG 10 μg/ml vs Ad-SEAP alone.
Method: A test liquid was clarified by centrifugation at 14,000 g for 2 min, warmed-up at 65° C. for 5 min to inhibit endogenous phosphatases, then 20 μl aliquots were transferred into each well of a 96-well plate to 130 μl of reaction buffer (0.5 M NaHCO3, 0.5 MM MgCl2, pH 9.8), and incubated at 37° C. for 10 min. Then 50 μl of 60 μM p-nitrophenyl phosphate in reaction buffer were added, and the optical density was measured at 405 nm at fixed intervals. The SEAP activity was expressed in mU/ml, considering 1 mU/ml corresponds to an increase in optical density of 0.04 U per 1 min.
Mouse peritoneal macrophages were obtained and incubated as described in the example 4. Cells were incubated in triplet culture wells with addition of Ad-GFP at 2×10^7 PFU per well in combination with TNF-α (10 ng/ml) or APG (Russian Patent no. 2195308, 10 μg/ml). In the negative control cultures, macrophages were transduced with Ad-SEAP (2×10^7 PFU) without any cell activating compound. After 4 days, the activity of SEAP was measured in the culture medium, as described in the example 2.

On to `CCOCc1nc2c([nH]1)c(N)nc1ccccc12` [CL097], for which the “Fold increase in the expression of GFP, calculated according to the formula (1), Mean” value in test [1] (agonist 2.5 μg/ml) is given as 14.2. With Flagellin, the “Fold increase in the expression of GFP, calculated according to the formula (1), Mean” value in test [1] (agonist 1 μg/ml) was 2.13.

Regarding lipoteichoic acid [LTA], the “Fold increase in the expression of GFP, calculated according to the formula (1), Mean” value in test [1] (agonist 10 μg/ml) was 2.10.

For `CC(C)Cn1cnc2c(N)nc3ccccc3c21` [Imiquimod, imiquimod], in test [1] (agonist 10 μg/ml), the “Fold increase in the expression of GFP, calculated according to the formula (1), Mean” value is 2.03. In the case of TNF-α, the “Enhancement coefficient (SEAP expression in peritoneal macrophages)” value in test [2] came out at 1.8. For “Lauroyl-g-D-Glu-D-mDAP and Lauroyl-g-D-Glu-L-mDAP [C12-iE-DAP]”, the “Fold increase in the expression of GFP, calculated according to the formula (1), Mean” value in test [1] (agonist 20 μg/ml) is listed as 3.1. As to ODN 1826, the “Fold increase in the expression of GFP, calculated according to the formula (1), Mean” value in test [1] (agonist 0.6 μg/ml) is recorded as 1.43.

Values taken from US20160201067A1, “Composition for Enhancing Transgene Expression in Eukaryotic Cells and Method for Enhancing Production of a Target Protein Encoded by a Transgene” (SILEZIA GROUP PTE. LTD, priority 2013, published 2016).
